Experimental data: patent publication US8895587B2, “Insecticidal compounds based on arylthioacetamide derivatives” (Syngenta Participations AG, priority 2011, dated 2014)

How the values were obtained:
Type in all cases: in vivo
[1] = test system: Spodoptera littoralis; assay: Spodoptera littoralis (Egyptian cotton leafworm) leaf disc test; details: foliar, 72 h, application rate 200 ppm, cotton leaf discs, L1 larvae, mortality, feeding behavior, growth regulation 3 DAT
Source text: Spodoptera littoralis (Egyptian Cotton Leafworm): Cotton leaf discs were placed on agar in a 24-well microtiter plate and sprayed with test solutions at an application rate of 200 ppm. After drying, the leaf discs were infested with 5 L1 larvae. The samples were checked for mortality, feeding behavior, and growth regulation 3 days after treatment (DAT).

[2] = test system: Plutella xylostella; assay: Plutella xylostella (diamond back moth) larval test on artificial diet; details: 144 h, application rate 200 ppm (concentration in well 18 ppm), L2 larvae on artificial diet, 6 days
Method: (§1) 24-well microtiter plate (MTP) with artificial diet was treated with test solutions at an application rate of 200 ppm (concentration in well 18 ppm) by pipetting. After drying, the MTP's were infested with L2 larvae (7-12 per well). After an incubation period of 6 days, samples were checked for larval mortality and growth regulation.

[3] = test system: Plutella xylostella; assay: as above; details: 144 h; for pest or weed control at 0.8 ppm: application rate 0.8 ppm; for pest or weed control at 3 ppm: application rate 3 ppm
[4] = test system: Thrips tabaci; assay: Thrips tabaci (onion thrips) leaf disc test; details: foliar, 168 h, application rate 200 ppm, sunflower leaf discs, 7 days
Method: Sunflower leaf discs were placed on agar in a 24-well microtiter plate and sprayed with test solutions at an application rate of 200 ppm. After drying, the leaf discs were infested with a thrips population of mixed ages. After an incubation period of 7 days, samples were checked for mortality.

[5] = test system: Diabrotica balteata; assay: Diabrotica balteata (corn root worm) larval test on artificial diet; details: 120 h, read-out: Control/% Diabrotica balteata Corn rootworm; for pest or weed control at 3 ppm: application rate 3 ppm; for pest or weed control at 12 ppm: application rate 12 ppm; for pest or weed control at 50 ppm: application rate 50 ppm
[6] = test system: Heliothis virescens; assay: Heliothis virescens (tobacco budworm) egg/larval test on artificial diet; details: 96 h, application rate 200 ppm (concentration in well 18 ppm), eggs on artificial diet, 4 days
Method: Eggs (0-24 h old) were placed in 24-well microtiter plate on artificial diet and treated with test solutions at an application rate of 200 ppm (concentration in well 18 ppm) by pipetting. After an incubation period of 4 days, samples were checked for egg mortality, larval mortality, and growth regulation.

[7] = test system: Tetranychus urticae; assay: Tetranychus urticae (two-spotted spider mite) leaf disc test; details: foliar, 192 h, application rate 200 ppm, bean leaf discs, 8 days
Source text: Bean leaf discs on agar in 24-well microtiter plates were sprayed with test solutions at an application rate of 200 ppm. After drying, the leaf discs are infested with mite populations of mixed ages. 8 days later, discs are checked for egg mortality, larval mortality, and adult mortality.

[8] = test system: Myzus persicae; assay: Myzus persicae (green peach aphid), systemic test; details: 144 h, application rate 12.5 ppm, roots of pea seedlings in test solution, 6 days
Source text: Myzus persicae (Green peach aphid), systemic test: Roots of pea seedlings, infested with an aphid population of mixed ages, are placed directly in the test solutions at an application rate of 12.5 ppm. 6 days after introduction, samples are checked for mortality and special effects on the plant. The following compounds gave at least 80% control of Myzus persicae: […]

[9] = test system: Diabrotica balteata; assay: Diabrotica balteata (corn root worm) larval test on artificial diet; details: 120 h, application rate 200 ppm (concentration in well 18 ppm), L2 larvae on artificial diet, 5 days
Method: as §1, with “Diabrotica balteata (Corn Root Worm): A 24-well” for “24-well”, “(6-10” for “(7-12”, “5” for “6”

[10] = test system: Heliothis virescens; assay: Heliothis virescens (tobacco budworm) egg/larval test on artificial diet; details: 96 h; for pest or weed control at 0.8 ppm: application rate 0.8 ppm; for pest or weed control at 3 ppm: application rate 3 ppm

Cc1cc(C2=NOC(c3cc(Cl)cc(Cl)c3)(C(F)(F)F)C2)ccc1SCC(=O)NCC(F)(F)F (stereo not shown) [Compound A49, 2-{2-Methyl-4-[5-(3,5-Dichloro-phenyl)-5-trifluoromethyl-4,5-dihydro-isoxazol-3-yl]-phenylsulfanyl}-N-(2,2,2-trifluoro-ethyl)-acetamide]
pest or weed control at 200 ppm [1]: ≥ 80% | pest or weed control at 200 ppm [2]: ≥ 80% | pest or weed control at 0.8 ppm [3]: 80% | pest or weed control at 3 ppm [3]: 100% | pest or weed control at 200 ppm [4]: ≥ 80% | pest or weed control at 3 ppm [5]: 100% | pest or weed control at 12 ppm [5]: 100% | pest or weed control at 200 ppm [6]: ≥ 80% | pest or weed control at 200 ppm [7]: ≥ 80% | pest or weed control at 12.5 ppm [8]: ≥ 80% | pest or weed control at 200 ppm [9]: ≥ 80% | pest or weed control at 0.8 ppm [10]: 80% | pest or weed control at 3 ppm [10]: 100%

Cc1cc(C2=NOC(c3cc(Cl)cc(Cl)c3)(C(F)(F)F)C2)ccc1[S+]([O-])CC(=O)NCC(F)(F)F (stereo not shown) [Compound A50, 2-{4-[5-(3,5-Dichloro-phenyl)-5-trifluoromethyl-4,5-dihydro-isoxazol-3-yl]-2-methyl-benzenesulfinyl}-N-(2,2,2-trifluoro-ethyl)-acetamide]
pest or weed control at 200 ppm [1]: ≥ 80% | pest or weed control at 200 ppm [2]: ≥ 80% | pest or weed control at 0.8 ppm [3]: 80% | pest or weed control at 3 ppm [3]: 100% | pest or weed control at 200 ppm [4]: ≥ 80% | pest or weed control at 3 ppm [5]: 75% | pest or weed control at 12 ppm [5]: 100% | pest or weed control at 50 ppm [5]: 100% | pest or weed control at 200 ppm [6]: ≥ 80% | pest or weed control at 200 ppm [7]: ≥ 80% | pest or weed control at 12.5 ppm [8]: ≥ 80% | pest or weed control at 200 ppm [9]: ≥ 80% | pest or weed control at 0.8 ppm [10]: 80% | pest or weed control at 3 ppm [10]: 80%

Cc1cc(C2=NOC(c3cc(Cl)cc(Cl)c3)(C(F)(F)F)C2)ccc1S(=O)(=O)CC(=O)NCC(F)(F)F (stereo not shown) [Compound A51, 2-{4-[5-(3,5-Dichloro-phenyl)-5-trifluoromethyl-4,5-dihydro-isoxazol-3-yl]-2-methyl-benzenesulfonyl}-N-(2,2,2-trifluoro-ethyl)-acetamide]
pest or weed control at 200 ppm [1]: ≥ 80% | pest or weed control at 200 ppm [2]: ≥ 80% | pest or weed control at 0.8 ppm [3]: 80% | pest or weed control at 3 ppm [3]: 100% | pest or weed control at 200 ppm [4]: ≥ 80% | pest or weed control at 12 ppm [5]: 100% | pest or weed control at 50 ppm [5]: 100% | pest or weed control at 200 ppm [6]: ≥ 80% | pest or weed control at 200 ppm [7]: ≥ 80% | pest or weed control at 12.5 ppm [8]: ≥ 80% | pest or weed control at 200 ppm [9]: ≥ 80% | pest or weed control at 0.8 ppm [10]: 80% | pest or weed control at 3 ppm [10]: 80%
